This note sets out measurements from ChEMBL document CHEMBL1121987 (J Med Chem, 1982).

Activity calls are given as the source filed them. The rule behind the calls is not given here.

Data set [1] can be described thus: pKa value was determined. The data set is classed as physicochemical.
Data set [2] has as its target Dihydrofolate reductase (Lactobacillus casei) (UniProt P00381). Description: Inhibitory activity tested against dihydrofolate reductase from Lactobacillus casei. The following applies: Lacticaseibacillus casei.
In data set [3] the target is T1, Dihydrofolate reductase (Mus musculus) (UniProt P00375).
T1 sequence (whole entry): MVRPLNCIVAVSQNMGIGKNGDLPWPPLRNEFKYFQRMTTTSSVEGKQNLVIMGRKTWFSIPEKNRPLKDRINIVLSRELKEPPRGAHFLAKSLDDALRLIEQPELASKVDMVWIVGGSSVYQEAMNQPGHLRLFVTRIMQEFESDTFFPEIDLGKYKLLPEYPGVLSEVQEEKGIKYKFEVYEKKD
Description: Inhibitory tested against Dihydrofolate reductase enzyme from L1210 mouse leukemia cells using [3H]methotrexate as a radioligand. The data set is classed as cell-based.

The test system of data set [4] is Mus musculus. Put plainly: In vivo life span increase in mice after 120 mg/kg (mg/kg)/day (q3d X 3) starting 24 hr of ip administration on; No activity. Format: functional, organism-based. Also noted: dose 120 mg/kg. The following applies: at 120 mg/kg.
Data set [5] deals with Mus musculus. Put plainly: In vivo life span increase in mice after 60 mg/kg (mg/kg)/day (q3d X 3) starting 24 hr of ip administration on; No activity. Format: functional, organism-based. As to conditions: at 60 mg/kg. On the set-up: dose 60 mg/kg.
The test system of data set [6] is Mus musculus. Description: In vivo life span increase in mice after 240 mg/kg (mg/kg)/day (q3d X 3) starting 24 hr of ip administration on. Format: functional. As to conditions: route intraperitoneal.
For data set [7], the species on record is Mus musculus. Put plainly: Compound was tested for life span loss of mean body weight. The data set is classed as functional.
The subject of data set [8] is Mus musculus. Put plainly: Compound was tested for life span of weight loss in mice at 1 mg/kg/day. Format: functional.
The test system of data set [9] is Mus musculus. Put plainly: Compound was tested for life span of weight loss in mice at 4 mg/kg/day. Format: functional.
For data set [10], the species on record is Mus musculus. Description: Compound was tested for life span of weight gain. The data set is classed as functional.
Data set [11] is filed under the species Mus musculus. Description: Growth inhibitory activity against L1210 mouse leukemia cells. Format: functional.
Data set [12] deals with Mus musculus. Description: In vivo life span increase in mice after 30 mg/kg (mg/kg)/day (q3d X 3) starting 24 hr of ip administration on;No activity. The data set is classed as functional, organism-based. On the set-up: dose 30 mg/kg. The following applies: at 30 mg/kg.

Chain of Dihydrofolate reductase (Lactobacillus casei) (P00381 whole entry): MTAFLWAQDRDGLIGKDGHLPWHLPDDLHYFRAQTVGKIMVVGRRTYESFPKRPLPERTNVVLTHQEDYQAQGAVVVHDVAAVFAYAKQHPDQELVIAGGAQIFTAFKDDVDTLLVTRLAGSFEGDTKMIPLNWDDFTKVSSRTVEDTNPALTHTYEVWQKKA

The pKa is the pH at which an ionisable group is half protonated. Read a low pKa as a group that gives up its proton readily. The compound `N[C@@H](CCC(=O)O)C(=O)O` [GLUTAMIC ACID] returned a pKa in [1] of 3.2.

On to `CC(=O)NCC(=O)O` [ACETURIC ACID], for which the pKa in [1] was determined as 3.6.

As to `Nc1nc(N)c2nc(CNc3ccc(C(=O)N[C@@H](CCC(=O)O)C(=O)O)cc3)cnc2n1`, the ID50 in data set [2] came out at 27 nM; in data set [3], 2.2 nM.

Usually ILS stands for the gain in survival time of treated over control animals, in per cent. A lower ILS goes with little gain in survival. Regarding `Nc1nc(N)c2nc(CNc3ccc(CNC(CO)CCC(=O)O)cc3)cnc2n1` (stereo not given), the Increase result in data set [4], in data set [5] and in [12] was “inactive” in each case. Also, the ID50 in data set [2] is 470 nM; in data set [3] it was 24 nM. In data set [6], the Increase is recorded as 22%. In addition, the Loss in data set [7] came to 5%. In data set [8], the ILS at 1 mg/kg/day worked out at 27%. Also, the ILS at 4 mg/kg/day in data set [9] was 45%. The compound also displayed a Weight gain in data set [10] of 13%. The Activity in [11] amounted to 1 µM.
